Test results as given in PMC9358681 (Biochemical pharmacology, 2022).
Where “and” joins values, the source holds several entries; their conditions need not be identical. Identical values can stand only once. Like-named read-outs stand apart in the source and are kept apart here.

What was measured:
[1] = target: T1, human A2BAR (Homo sapiens, UniProt P29275); test: [3H]PSB-603 radioligand washout assay on membranes; type: binding; conditions: 10 × IC50, 2 hr pre-incubation, 4x washed, 25 °C
T1 construct: host or cells: CHO-spap
T1 sequence (P29275 1-332): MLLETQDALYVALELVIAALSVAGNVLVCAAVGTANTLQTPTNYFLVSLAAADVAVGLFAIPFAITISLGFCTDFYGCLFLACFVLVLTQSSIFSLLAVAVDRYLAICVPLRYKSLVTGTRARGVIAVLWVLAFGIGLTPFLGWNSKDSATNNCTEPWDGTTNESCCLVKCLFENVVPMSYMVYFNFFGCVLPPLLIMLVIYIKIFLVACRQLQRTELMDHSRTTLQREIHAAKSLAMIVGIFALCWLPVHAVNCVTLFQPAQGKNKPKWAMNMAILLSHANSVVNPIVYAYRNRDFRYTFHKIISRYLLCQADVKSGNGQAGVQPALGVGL
Protocol: Were performed at 25 °C and in a total volume of 400 μL. […] Subsequently, the samples were centrifuged at 13200 rpm (16 100g) at 4 °C for 5 min and the supernatant containing unbound ligand was removed. Pellets were resuspended in 1 mL of assay buffer, and samples were incubated for 10 min at 25 °C in the thermomixer. After four centrifugation and washing cycles in total, supernatant was discarded and the membranes were resuspended in a total volume of 400 μL containing 1.5 nM [^3H]PSB-603. After 2 hr at 25 °C incubations were terminated by rapid filtration through GF/C filters using a Brandel harvester and the samples were obtained as described under “Saturation binding experiments”.
Both the washed and the unwashed conditions were assessed. For the washed condition, the unlabeled compounds were incubated with the target for 2 hr, followed by four wash and centrifugation cycles. Subsequently, [^3H]PSB-603 was co-incubated which led to competition of the radioligand with the unlabeled ligand still bound after the washing procedure. For the unwashed condition no washing was performed before the determination of radioligand displacement. Based on the experimental set-up, the long RT compound and the covalent ligand would be predicted to remain bound to A2BARs, as they would not be easily removed during the washing steps, and thus to result in lower radioligand binding.

[2] = target: T1, human A2BAR; test: [3H]PSB-603 competition association assay; type: binding; conditions: for RT: RT = 1/koff; for Kd: read-out: Kinetic KD (koff/kon); for koff: read-out: koff (converted); for kon: read-out: kon (converted)
Protocol: In all radioligand binding experiments, CHO-spap-hA2BAR membranes were thawed and homogenized using an Ultra Turrax homogenizer at 24,000 rpm (IKA-Werke GmbH & Co.KG, Staufen, Germany), diluted in assay buffer to the desired concentration (10–30 μg per well or Eppendorf tube). All materials were brought to 25 °C, 30 min prior to the experiment. ZM241385 (10 μM) was used to determine nonspecific binding (NSB).
Addition of CHO-spap-hA2BAR membrane aliquots initiated the association. The amount of receptor-bound radioligand was determined at different time points up to 3 hr. After 3 hr the incubation was terminated and samples were obtained as described under “Displacement experiments”.
All competition association data were globally fitted.

[3] = target: T2, hA2BAR (CHO-spap-hA2BAR cells) (Homo sapiens, UniProt P29275); test: Label-free whole-cell washout assay; type: cell-based; conditions: 30 × IC50 antagonist 4 hr, NECA EC80, control without antagonist = 100%
T2 construct: host or cells: CHO-spap
T2 sequence (P29275 1-332): T1 sequence (P29275 1-332)
Protocol: The assay followed the same initial steps as described in “Determination of pIC50 values for hA2BAR antagonists”. […] Subsequently, wells were washed by aspiration of the medium, followed by the addition of 95 μL fresh serum free medium. For the unwashed cells, the medium was not removed but was pipetted up and down to simulate any mechanical cell stress.
Data were analyzed using GraphPad Prism 8.0.
Subsequently, a washout assay was performed and the cell response to the compounds was monitored and evaluated (Fig. 7). […] For the evaluation of the unwashed condition, the medium was not refreshed but was pipetted up and down in order to mimic the possible mechanical stress induced to the washed cells.

[4] = target: T1, human A2BAR; test: [3H]PSB-603 displacement on CHO-spap-hA2BAR membranes; type: binding
[5] = target: T3, A2B adenosine receptor (Rattus norvegicus, UniProt P29276); test: Radioligand binding, rat A2B ([125I]I-ABOPX, HEK-293); conditions: rat (r), HEK-293, [125I]I-ABOPX
T3 sequence (P29276 1-332): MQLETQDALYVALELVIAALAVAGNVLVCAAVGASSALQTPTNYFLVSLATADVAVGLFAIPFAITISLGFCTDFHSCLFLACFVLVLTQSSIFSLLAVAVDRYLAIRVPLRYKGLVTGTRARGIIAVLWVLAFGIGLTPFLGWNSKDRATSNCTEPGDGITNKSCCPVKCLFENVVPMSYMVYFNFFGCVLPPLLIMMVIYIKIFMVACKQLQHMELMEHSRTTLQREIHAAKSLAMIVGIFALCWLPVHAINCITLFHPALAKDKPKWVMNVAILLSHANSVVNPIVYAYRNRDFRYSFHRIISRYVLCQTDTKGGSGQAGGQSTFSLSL

[6] = target: A2A adenosine receptor (Homo sapiens, UniProt P29274); test: Radioligand binding, human A2A ([3H]CGS21680, HEK-293); conditions: HEK-293, [3H]CGS21680
[7] = target: T4, A3 adenosine receptor (Homo sapiens, UniProt P0DMS8); test: Radioligand binding, human A3 ([125I]I-AB-MECA, HEK-293); conditions: HEK-293, [125I]I-AB-MECA
T4 sequence (P0DMS8 1-318): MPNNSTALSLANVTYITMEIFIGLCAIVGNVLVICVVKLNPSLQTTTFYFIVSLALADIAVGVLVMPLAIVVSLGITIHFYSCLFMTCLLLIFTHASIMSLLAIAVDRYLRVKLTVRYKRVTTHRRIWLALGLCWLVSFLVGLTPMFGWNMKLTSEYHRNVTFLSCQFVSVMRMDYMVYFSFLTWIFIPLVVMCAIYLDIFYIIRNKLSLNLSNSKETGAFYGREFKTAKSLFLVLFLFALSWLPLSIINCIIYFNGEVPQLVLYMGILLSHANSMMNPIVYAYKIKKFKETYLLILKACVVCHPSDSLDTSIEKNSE
Excerpt: (§1) The A2B receptor selectivity was generally low, especially at the rat A2B receptor.

[8] = target: A2A adenosine receptor (Rattus norvegicus, UniProt P30543); test: Radioligand binding, rat A2A ([3H]CGS21680, HEK-293); conditions: rat (r), HEK-293, [3H]CGS21680
[9] = target: T5, A2B adenosine receptor (Homo sapiens, UniProt P29275); test: Radioligand binding, human A2B ([125I]I-ABOPX, HEK-293); conditions: HEK-293, [125I]I-ABOPX
T5 sequence (P29275 1-332): T1 sequence (P29275 1-332)

[10] = target: T6, A1 adenosine receptor (Rattus norvegicus, UniProt P25099); test: Radioligand binding, rat A1 ([3H]R-PIA, HEK-293); conditions: HEK-293, [3H]R-PIA
T6 sequence (P25099 1-326): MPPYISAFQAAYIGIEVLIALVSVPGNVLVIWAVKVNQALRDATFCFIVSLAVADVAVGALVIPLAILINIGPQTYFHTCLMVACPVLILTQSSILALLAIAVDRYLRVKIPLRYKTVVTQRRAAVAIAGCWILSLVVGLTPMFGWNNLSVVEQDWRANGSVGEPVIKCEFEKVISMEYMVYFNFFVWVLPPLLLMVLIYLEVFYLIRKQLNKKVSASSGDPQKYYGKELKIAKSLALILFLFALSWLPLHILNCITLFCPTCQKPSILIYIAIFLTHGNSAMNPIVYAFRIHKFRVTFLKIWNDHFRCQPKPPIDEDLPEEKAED
Excerpt: as §1

[11] = target: T7, A1 adenosine receptor (Homo sapiens, UniProt P30542); test: Radioligand binding, human A1 ([3H]R-PIA, HEK-293); conditions: HEK-293, [3H]R-PIA
T7 sequence (P30542 1-326): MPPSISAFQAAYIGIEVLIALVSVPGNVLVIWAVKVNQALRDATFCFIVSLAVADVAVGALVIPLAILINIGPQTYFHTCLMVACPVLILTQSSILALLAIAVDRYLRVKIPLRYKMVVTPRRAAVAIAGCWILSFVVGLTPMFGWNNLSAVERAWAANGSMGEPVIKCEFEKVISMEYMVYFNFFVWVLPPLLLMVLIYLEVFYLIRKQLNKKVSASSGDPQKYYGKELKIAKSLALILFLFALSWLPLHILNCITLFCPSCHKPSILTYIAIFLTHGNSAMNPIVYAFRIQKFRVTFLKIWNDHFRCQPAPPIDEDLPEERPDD
Excerpt: as §1

[12] = competing ligand at 1.0-fold IC50, up to 3 hr, 25 °C
[13] = […] [3H]PSB-603, 2 h, 25 °C, read-out: Ki (converted)

A2A adenosine receptor (Homo sapiens, UniProt P29274), sequence (P29274 whole entry): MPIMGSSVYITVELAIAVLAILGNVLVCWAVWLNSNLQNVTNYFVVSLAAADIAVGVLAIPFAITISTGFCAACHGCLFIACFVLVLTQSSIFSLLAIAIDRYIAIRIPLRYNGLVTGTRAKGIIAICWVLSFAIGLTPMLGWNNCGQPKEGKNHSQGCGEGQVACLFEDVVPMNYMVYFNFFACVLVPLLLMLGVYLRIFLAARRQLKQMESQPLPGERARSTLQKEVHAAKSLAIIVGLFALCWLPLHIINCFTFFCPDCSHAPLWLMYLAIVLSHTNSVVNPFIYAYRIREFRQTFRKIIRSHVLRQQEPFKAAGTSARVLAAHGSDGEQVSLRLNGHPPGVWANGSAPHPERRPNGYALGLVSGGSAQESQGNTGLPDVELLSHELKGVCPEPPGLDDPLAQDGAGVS
A2A adenosine receptor (Rattus norvegicus, UniProt P30543), sequence (P30543 whole entry): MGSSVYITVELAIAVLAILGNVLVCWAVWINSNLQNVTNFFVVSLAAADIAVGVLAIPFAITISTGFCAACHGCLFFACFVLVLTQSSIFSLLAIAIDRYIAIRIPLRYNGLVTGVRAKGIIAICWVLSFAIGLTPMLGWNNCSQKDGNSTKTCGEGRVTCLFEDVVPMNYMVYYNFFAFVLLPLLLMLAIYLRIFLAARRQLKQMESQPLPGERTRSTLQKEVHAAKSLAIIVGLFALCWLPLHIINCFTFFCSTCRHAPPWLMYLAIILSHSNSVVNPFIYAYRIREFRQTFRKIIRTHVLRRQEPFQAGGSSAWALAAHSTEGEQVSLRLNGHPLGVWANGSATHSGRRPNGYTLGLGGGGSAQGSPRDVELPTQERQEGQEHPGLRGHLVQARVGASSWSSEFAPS

SMILES	A2BARs still occupied by ligand after the washing cycles [1]	compound removed (washed away) during the washing procedure [1]	RT [2, 12]	Kd [2]	koff [2]	kon [2]	washout - %AUC, 1x washed (NECA signaling) ([3]; 1x washed)	washout - %AUC, unwashed (NECA signaling) ([3]; unwashed)	Ki [4, 13]	Ki [5]	Ki [6]	Ki [7]	Ki [8]	Ki [9]	Ki [10]	Ki [11]	Kinetic KD (koff/kon) [2, 12]	Ki ([4]; Ki)
CCCn1c(=O)c2[nH]c(-c3ccc(OCC(=O)Nc4ccc(C(=O)OC)cc4)cc3)nc2n(CCC)c1=O [Compound 17]	44%	56%	87 min and 87 ± 29 min	1.8 ± 0.62 nM	0.000183 s⁻¹	100000 M⁻¹ s⁻¹	19 ± 6%	10 ± 3%	2.29 nM	–	–	–	–	–	–	–	–	–
CCCn1c(=O)c2[nH]c(-c3ccc(OCC(=O)NCc4ccc(C)cc4)cc3)nc2n(CCC)c1=O [Compound 20, 2-(4-(2,6-dioxo-1,3-dipropyl-2,3,6,7-tetrahydro-1H-purin-8-yl)phenoxy)-N-(4-methylbenzyl)acetamide]	–	–	22 ± 3.5 min	12 ± 4.7 nM	0.000767 s⁻¹	66700 M⁻¹ s⁻¹	–	–	9.08 nM	486 nM	20.8 ± 2.4 nM	140 ± 7 nM	207 nM	8 ± 2.2 nM	8.85 nM	212 ± 68 nM	–	–
CCCn1c(=O)c2[nH]c(-c3ccc(OCC(=O)NCc4ccc(F)cc4)cc3)nc2n(CCC)c1=O [Compound 21, 2-(4-(2,6-dioxo-1,3-dipropyl-2,3,6,7-tetrahydro-1H-purin-8-yl)phenoxy)-N-(4-fluorobenzyl)acetamide]	–	–	–	3.8 ± 1.7 nM	0.0011 s⁻¹	283000 M⁻¹ s⁻¹	–	–	3.6 nM	20 nM	33.6 ± 0.1 nM	89.9 ± 11.6 nM	251 nM	5.5 ± 1.2 nM	6.55 nM	63.9 ± 16.5 nM	–	–
CCCn1c(=O)c2[nH]c(-c3ccc(OCC(=O)NCc4ccc(Br)cc4)cc3)nc2n(CCC)c1=O [Compound 22, N-(4-bromobenzyl)-2-(4-(2,6-dioxo-1,3-dipropyl-2,3,6,7-tetrahydro-1H-purin-8-yl)phenoxy)acetamide]	–	–	–	6.5 ± 3.6 nM	0.000717 s⁻¹	117000 M⁻¹ s⁻¹	–	–	5.73 nM	–	26.1 ± 0.4 nM	274 ± 56 nM	112 nM	6.8 ± 0.8 nM	32.7 nM	586 ± 250 nM	–	–
CCCn1c(=O)c2[nH]c(-c3ccc(OCC(=O)N[C@H](C)c4ccccc4)cc3)nc2n(CCC)c1=O [Compound 24, (R)-2-(4-(2,6-dioxo-1,3-dipropyl-2,3,6,7-tetrahydro-1H-purin-8-yl)phenoxy)-N-(1-phenylethyl)acetamide]	–	–	6.1 ± 1.6 min	7.5 ± 3.9 nM	0.00273 s⁻¹	367000 M⁻¹ s⁻¹	–	–	15.2 nM	21.1 nM	64.4 ± 21.2 nM	63.9 ± 16.5 nM	375 nM	8.5 ± 1.1 nM	5.23 nM	27.3 ± 4.9 nM	–	–
CCCn1c(=O)c2[nH]c(-c3ccc(OCC(=O)N[C@@H](C)c4ccccc4)cc3)nc2n(CCC)c1=O [Compound 25, (S)-2-(4-(2,6-dioxo-1,3-dipropyl-2,3,6,7-tetrahydro-1H-purin-8-yl)phenoxy)-N-(1-phenylethyl)acetamide]	–	–	10 ± 2.3 min	8.6 ± 3 nM	0.00162 s⁻¹	183000 M⁻¹ s⁻¹	–	–	8.11 nM	20.2 nM	21 ± 1.8 nM	156 ± 15 nM	165 nM	8.2 ± 2.5 nM	10.4 nM	23.7 ± 4.9 nM	–	–
CCCn1c(=O)c2[nH]c(-c3ccc(OCC(=O)Nc4ccc(N=C=S)cc4)cc3)nc2n(CCC)c1=O [Compound 29, 2-(4-(2,6-dioxo-1,3-dipropyl-2,3,6,7-tetrahydro-1H-purin-8-yl)phenoxy)-N-(4-isothiocyanatophenyl)acetamide]	–	18%	Covalent mechanism (see text)	–	–	–	–	–	–	–	–	–	–	–	–	–	Covalent mechanism (see text)	9.28 nM
